Test results reported in ChEMBL document CHEMBL1137657, “Identification of 16S rRNA methylase-producing Acinetobacter baumannii clinical strains in North America” (2007).
Activity calls are given as the source filed them. The calls are words filed in the database; no cut-off is given here.

Experiments:
Escherichia coli [1] = assay: Antimicrobial activity against azide-resistant Escherichia coli J53 transconjugant with 16S rRNA methylase armA gene expressing Acinetobacter baumannii isolate C; type: functional, organism-based
Acinetobacter baumannii [2] = assay: Antimicrobial activity against colistin-resistant Acinetobacter baumannii 213 transconjugant with 16S rRNA methylase armA gene expressing Acinetobacter baumannii isolate C; type: functional, organism-based
Acinetobacter baumannii [3] = assay: Antibacterial activity against Acinetobacter baumannii isolate A expressing 16S rRNA methylase armA gene; type: functional
Escherichia coli [4] = assay: Antibacterial activity against Escherichia coli DH10B expressing Acinetobacter baumannii isolate B 16S rRNA methylase armA gene; type: functional; conditions: K-12 substr. DH10B
Escherichia coli [5] = assay: Antimicrobial activity against azide-resistant Escherichia coli J53 transconjugant with 16S rRNA methylase armA gene expressing Acinetobacter baumannii isolate E; type: functional, organism-based
Acinetobacter baumannii [6] = assay: Antimicrobial activity against colistin-resistant Acinetobacter baumannii 213 transconjugant with 16S rRNA methylase armA gene expressing Acinetobacter baumannii isolate D; type: functional, organism-based
Acinetobacter baumannii [7] = assay: Antibacterial activity against Acinetobacter baumannii isolate C expressing 16S rRNA methylase armA gene; type: functional
Acinetobacter baumannii [8] = assay: Antimicrobial activity against colistin-resistant Acinetobacter baumannii 213 transconjugant with 16S rRNA methylase armA gene expressing Acinetobacter baumannii isolate A; type: functional, organism-based
Escherichia coli [9] = assay: Antimicrobial activity against azide-resistant Escherichia coli J53 transconjugant with 16S rRNA methylase armA gene expressing Acinetobacter baumannii isolate B; type: functional, organism-based
Acinetobacter baumannii [10] = assay: Antimicrobial activity against colistin-resistant Acinetobacter baumannii 213 transconjugant with 16S rRNA methylase armA gene expressing Acinetobacter baumannii isolate E; type: functional, organism-based
Acinetobacter baumannii [11] = assay: Antibacterial activity against armA knockout Acinetobacter baumannii 231; type: functional, organism-based
Acinetobacter baumannii [12] = assay: Antibacterial activity against Acinetobacter baumannii isolate B expressing 16S rRNA methylase armA gene; type: functional
Escherichia coli [13] = assay: Antimicrobial activity against azide-resistant Escherichia coli J53 transconjugant with 16S rRNA methylase armA gene expressing Acinetobacter baumannii isolate D; type: functional, organism-based
Acinetobacter baumannii [14] = assay: Antibacterial activity against Acinetobacter baumannii isolate E expressing 16S rRNA methylase armA gene; type: functional
Acinetobacter baumannii [15] = assay: Antibacterial activity against Acinetobacter baumannii isolate D expressing 16S rRNA methylase armA gene; type: functional
Escherichia coli [16] = assay: Antimicrobial activity against azide-resistant Escherichia coli J53 transconjugant with 16S rRNA methylase armA gene expressing Acinetobacter baumannii isolate A; type: functional, organism-based
Acinetobacter baumannii [17] = assay: Antimicrobial activity against colistin-resistant Acinetobacter baumannii 213 transconjugant with 16S rRNA methylase armA gene expressing Acinetobacter baumannii isolate B; type: functional, organism-based

Compound: NCC[C@H](O)C(=O)N[C@@H]1C[C@H](N)[C@@H](O[C@H]2O[C@H](CN)[C@@H](O)[C@H](O)[C@H]2O)[C@H](O)[C@H]1O[C@H]1O[C@H](CO)[C@@H](O)[C@H](N)[C@H]1O [AMIKACIN]
- Activity (Escherichia coli [1]): Active
- Activity (Acinetobacter baumannii [2]): Active
- MIC (Acinetobacter baumannii [3]): > 512 µg/mL
- MIC (Escherichia coli [4]): ≥ 256 µg/mL
- Activity (Escherichia coli [5]): Active
- Activity (Acinetobacter baumannii [6]): Active
- MIC (Acinetobacter baumannii [7]): > 512 µg/mL
- Activity (Acinetobacter baumannii [8]): Active
- Activity (Escherichia coli [9]): Active
- Activity (Acinetobacter baumannii [10]): Active
- Activity (Acinetobacter baumannii [11]): Active
- MIC (Acinetobacter baumannii [12]): > 512 µg/mL
- Activity (Escherichia coli [13]): Active
- MIC (Acinetobacter baumannii [14]): > 512 µg/mL
- MIC (Acinetobacter baumannii [15]): > 512 µg/mL
- Activity (Escherichia coli [16]): Active
- Activity (Acinetobacter baumannii [17]): Active

Compound: NC[C@H]1O[C@H](O[C@H]2[C@H](O)[C@@H](O[C@H]3O[C@H](CO)[C@@H](O)[C@H](N)[C@H]3O)[C@H](N)C[C@@H]2N)[C@H](N)C[C@@H]1O [TOBRAMYCIN]
- MIC (Acinetobacter baumannii [3]): > 512 µg/mL
- MIC (Escherichia coli [4]): ≥ 256 µg/mL
- MIC (Acinetobacter baumannii [7]): > 512 µg/mL
- MIC (Acinetobacter baumannii [12]): > 512 µg/mL
- MIC (Acinetobacter baumannii [14]): > 512 µg/mL
- MIC (Acinetobacter baumannii [15]): > 512 µg/mL

Compound: GENTAMICIN
- MIC (Acinetobacter baumannii [3]): > 512 µg/mL
- MIC (Escherichia coli [4]): > 256 µg/mL
- MIC (Acinetobacter baumannii [7]): > 512 µg/mL
- MIC (Acinetobacter baumannii [12]): > 512 µg/mL
- MIC (Acinetobacter baumannii [14]): > 512 µg/mL
- MIC (Acinetobacter baumannii [15]): > 512 µg/mL
